Laboratory results as given in PubChem BioAssay (NCI).
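Dose response: 5 concentrations. Exposure: 48 h. Format: 96-well plates. Endpoint: linear interpolation; highest concentration if not reached. Here, GI50 denotes the concentration required for 50% inhibition of growth. TGI: concentration producing complete growth inhibition.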

Tests used:
Experiment in all cases: NCI tumour cell line growth inhibition, 48 h
UACC-62 melanoma = test system: UACC-62 melanoma
SK-MEL-28 melanoma = test system: SK-MEL-28 melanoma
OVCAR-4 ovarian = test system: OVCAR-4 ovarian
OVCAR-5 ovarian = test system: OVCAR-5 ovarian
SN12C renal = test system: SN12C renal
UACC-257 melanoma = test system: UACC-257 melanoma
CCRF-CEM leukemia = test system: CCRF-CEM leukemia
DU-145 prostate = test system: DU-145 prostate
HCT-116 colon = test system: HCT-116 colon
NCI/ADR-RES ovarian = test system: NCI/ADR-RES ovarian
SNB-19 CNS = test system: SNB-19 CNS
MDA-MB-231 breast = test system: MDA-MB-231 breast
HL-60(TB) leukemia = test system: HL-60(TB) leukemia
SK-OV-3 ovarian = test system: SK-OV-3 ovarian
U251 CNS = test system: U251 CNS
SK-MEL-5 melanoma = test system: SK-MEL-5 melanoma
ACHN renal = test system: ACHN renal
COLO 205 colon = test system: COLO 205 colon
EKVX NSCLC = test system: EKVX NSCLC
LOX IMVI melanoma = test system: LOX IMVI melanoma
NCI-H460 lung = test system: NCI-H460 lung
SF-539 CNS = test system: SF-539 CNS
SW-620 colon = test system: SW-620 colon
SR leukemia = test system: SR leukemia
786-0 renal = test system: 786-0 renal
K-562 leukemia = test system: K-562 leukemia
UO-31 renal = test system: UO-31 renal
MDA-MB-435 = test system: MDA-MB-435
IGROV1 ovarian = test system: IGROV1 ovarian
HCT-15 colon = test system: HCT-15 colon
M14 melanoma = test system: M14 melanoma
SNB-75 CNS = test system: SNB-75 CNS
SF-295 CNS = test system: SF-295 CNS
KM12 colon = test system: KM12 colon
NCI-H522 lung = test system: NCI-H522 lung
MCF7 breast = test system: MCF7 breast
RXF 393 renal = test system: RXF 393 renal
SK-MEL-2 melanoma = test system: SK-MEL-2 melanoma
HT29 colon = test system: HT29 colon
MDA-N = test system: MDA-N
HOP-92 NSCLC = test system: HOP-92 NSCLC
HS 578T breast = test system: HS 578T breast
NCI-H226 lung = test system: NCI-H226 lung
HCC-2998 colon = test system: HCC-2998 colon
A498 renal = test system: A498 renal
MOLT-4 leukemia = test system: MOLT-4 leukemia
RPMI-8226 leukemia = test system: RPMI-8226 leukemia
CAKI-1 renal = test system: CAKI-1 renal
PC-3 prostate = test system: PC-3 prostate
T-47D breast = test system: T-47D breast
NCI-H23 lung = test system: NCI-H23 lung
OVCAR-3 ovarian = test system: OVCAR-3 ovarian
MALME-3M melanoma = test system: MALME-3M melanoma
SF-268 CNS = test system: SF-268 CNS
TK-10 renal = test system: TK-10 renal
A549 NSCLC = test system: A549 NSCLC
HOP-62 NSCLC = test system: HOP-62 NSCLC
OVCAR-8 ovarian = test system: OVCAR-8 ovarian
BT-549 breast = test system: BT-549 breast

CC(C)=Cc1cc2c(cc1O)CCC1C2CC[C@@]2(C)C1CC[C@@H]2O (stereo partly specified)
GI50 (UACC-62 melanoma): 11 µM | TGI (UACC-62 melanoma): 24.7 µM | TGI (SK-MEL-28 melanoma): 30.2 µM | TGI (OVCAR-4 ovarian): 61 µM | TGI (OVCAR-5 ovarian): 31.8 µM | TGI (SN12C renal): 30 µM | TGI (UACC-257 melanoma): 30.5 µM | TGI (CCRF-CEM leukemia): 40.8 µM | TGI (DU-145 prostate): 27.7 µM | TGI (HCT-116 colon): 23.4 µM | TGI (NCI/ADR-RES ovarian): 28 µM | TGI (SNB-19 CNS): 24.4 µM | TGI (MDA-MB-231 breast): 35.2 µM | TGI (HL-60(TB) leukemia): 37.5 µM | TGI (SK-OV-3 ovarian): 35 µM | TGI (U251 CNS): 22.2 µM | TGI (SK-MEL-5 melanoma): 19.3 µM | TGI (ACHN renal): 29.5 µM | TGI (COLO 205 colon): 32.7 µM | TGI (EKVX NSCLC): 31.5 µM | TGI (LOX IMVI melanoma): 16.1 µM | TGI (NCI-H460 lung): 26.1 µM | GI50 (SF-539 CNS): 7.6 µM | TGI (SF-539 CNS): 22.4 µM | TGI (SW-620 colon): 23.6 µM | TGI (SR leukemia): 6.94 µM | TGI (786-0 renal): 25 µM | TGI (K-562 leukemia): 13.8 µM | TGI (UO-31 renal): 27.4 µM | GI50 (MDA-MB-435): 3.02 µM | TGI (MDA-MB-435): 11.7 µM | TGI (IGROV1 ovarian): 29.9 µM | TGI (HCT-15 colon): 24.4 µM | TGI (M14 melanoma): 22.8 µM | TGI (SNB-75 CNS): 24.8 µM | TGI (SF-295 CNS): 7.57 µM | TGI (KM12 colon): 25.3 µM | TGI (NCI-H522 lung): 31.2 µM | TGI (MCF7 breast): 37.4 µM | TGI (RXF 393 renal): 20.9 µM | TGI (SK-MEL-2 melanoma): 32.7 µM | TGI (HT29 colon): 30.8 µM | TGI (MDA-N): 7.14 µM | TGI (HOP-92 NSCLC): 42.1 µM | TGI (HS 578T breast): 65.6 µM | TGI (NCI-H226 lung): 26.1 µM | TGI (HCC-2998 colon): 31.8 µM | TGI (A498 renal): 29.9 µM | TGI (MOLT-4 leukemia): 25.3 µM | TGI (RPMI-8226 leukemia): 26 µM | TGI (CAKI-1 renal): 29.5 µM | TGI (PC-3 prostate): 28.6 µM | TGI (T-47D breast): 89.5 µM | TGI (NCI-H23 lung): 35.2 µM | GI50 (OVCAR-3 ovarian): 5.27 µM | TGI (OVCAR-3 ovarian): 19.9 µM | TGI (MALME-3M melanoma): 22.5 µM | TGI (SF-268 CNS): 36.2 µM | TGI (TK-10 renal): 9.68 µM | TGI (A549 NSCLC): 27.5 µM | GI50 (HOP-62 NSCLC): 15 µM | TGI (HOP-62 NSCLC): 31.7 µM | TGI (OVCAR-8 ovarian): 40.7 µM

COc1ccc2nc3cc(Cl)ccc3c(Nc3ccc(O)c(CN4CCN(C)CC4)c3)c2c1
TGI (UACC-62 melanoma): 3.07 µM | TGI (SK-MEL-28 melanoma): 3.62 µM | TGI (OVCAR-4 ovarian): 3.19 µM | TGI (OVCAR-5 ovarian): 5.34 µM | TGI (SN12C renal): 3.93 µM | TGI (UACC-257 melanoma): 3.45 µM | TGI (DU-145 prostate): 3.73 µM | TGI (HCT-116 colon): 3.74 µM | TGI (SNB-19 CNS): 5.96 µM | TGI (MDA-MB-231 breast): 2.99 µM | TGI (HL-60(TB) leukemia): 3.57 µM | TGI (SK-OV-3 ovarian): 11.1 µM | TGI (U251 CNS): 3.15 µM | TGI (SK-MEL-5 melanoma): 3.11 µM | TGI (ACHN renal): 3 µM | TGI (COLO 205 colon): 3.04 µM | TGI (EKVX NSCLC): 3.52 µM | TGI (NCI-H460 lung): 3.22 µM | TGI (SF-539 CNS): 3.22 µM | TGI (SW-620 colon): 5.1 µM | TGI (BT-549 breast): 38.6 µM | TGI (786-0 renal): 3 µM | TGI (K-562 leukemia): 3.71 µM | TGI (UO-31 renal): 3.31 µM | TGI (MDA-MB-435): 3 µM | TGI (IGROV1 ovarian): 3.3 µM | TGI (HCT-15 colon): 5.68 µM | TGI (M14 melanoma): 3.53 µM | TGI (SNB-75 CNS): 3.91 µM | TGI (SF-295 CNS): 3.81 µM | TGI (KM12 colon): 3.85 µM | TGI (NCI-H522 lung): 3.33 µM | TGI (MCF7 breast): 3.12 µM | TGI (RXF 393 renal): 3.22 µM | TGI (SK-MEL-2 melanoma): 3.29 µM | TGI (HT29 colon): 3.54 µM | TGI (MDA-N): 3.21 µM | TGI (HS 578T breast): 4.65 µM | TGI (NCI-H226 lung): 38.9 µM | TGI (HCC-2998 colon): 2.42 µM | TGI (A498 renal): 8.68 µM | TGI (MOLT-4 leukemia): 4.94 µM | TGI (RPMI-8226 leukemia): 4.85 µM | TGI (CAKI-1 renal): 3.98 µM | TGI (PC-3 prostate): 3.22 µM | TGI (T-47D breast): 4.48 µM | TGI (OVCAR-3 ovarian): 3.76 µM | TGI (MALME-3M melanoma): 3.21 µM | TGI (SF-268 CNS): 6.42 µM | TGI (TK-10 renal): 3.79 µM | TGI (A549 NSCLC): 3.47 µM | TGI (HOP-62 NSCLC): 4.07 µM | TGI (OVCAR-8 ovarian): 3.56 µM
